Assay results taken from patent publication US20130210881A1, “ANTIMICROBIAL COMPOSITION” (Agency for Science ,Technology and Research, priority 2010, published 2013).

What was measured:
Format in all cases: cell-based
[1] = tested on: Escherichia coli (ATCC 25922, gram-negative); test: Antimicrobial analysis, MIC, E. coli; conditions: ATCC25922, 37° C., 24 hours, concentration necessary to inhibit complete cell growth
Protocol: (§1) All bacteria and yeast originated from a −80° C. frozen stock. Bacteria were grown overnight at 37° C. in Tryptic Soy broth (TSB) and yeast was grown overnight at 22° C. in Yeast Mold (YM) broth. Sub-samples of these cultures were grown for three hours further and diluted to an OD600 of 0.1. The bacteria solutions (about 2˜5×10^8 cells/mL) were then added to the 96-well plate and were incubated at 37° C. for 24 hours. All experiments were run in triplicate and the reported minimum inhibitory concentration (MIC) is the concentration necessary to inhibit complete cell growth.

[2] = tested on: Bacillus subtilis (ATCC 23857, gram-positive); test: Antimicrobial analysis, MIC, B. subtilis; conditions: ATCC23857, 37° C., 24 hours, concentration necessary to inhibit complete cell growth
Protocol: as §1

[3] = tested on: Candida albicans (ATCC 10231, yeast); test: Antimicrobial analysis, MIC, C. albicans; conditions: ATCC10231, concentration necessary to inhibit complete cell growth
Protocol: as §1

Measured: MIC

c1ccc(C[n+]2ccn(Cc3ccc(Cn4cc[n+](Cc5ccccc5)c4)cc3)c2)cc1 [Sample 3a]
> 250 µg/mL: [1] | [2] | [3]

c1ccc(C[n+]2ccn(Cc3ccccc3Cn3cc[n+](Cc4ccccc4)c3)c2)cc1 [Sample 3b]
> 250 µg/mL: [1] | [2] | [3]

c1ccc(C[n+]2ccn(Cc3ccc(Cn4cc[n+](Cc5ccc(Cn6cc[n+](Cc7ccccc7)c6)cc5)c4)cc3)c2)cc1 [Sample 3c]
> 250 µg/mL: [1] | [2] | [3]

C(=C/CCn1cc[n+](Cc2ccccc2)c1)/CCn1cc[n+](CC/C=C\CCn2cc[n+](Cc3ccccc3)c2)c1 [Sample 3d]
> 250 µg/mL: [1] | [2] | [3]

C(=C/CCn1cc[n+](Cc2ccc(Cn3cc[n+](CC/C=C\CCn4cc[n+](Cc5ccccc5)c4)c3)cc2)c1)/CCn1cc[n+](Cc2ccccc2)c1 [Sample 3f]
> 250 µg/mL: [1] | [2] | [3]
